The text below walks through data of US20250205344A1, “2,4-DIOXOTETRAHYDROPYRIMIDINYL DERATIVES AS DEGRONS IN PROTACS” (GLAXOSMITHKLINE INTELLECTUAL PROPERTY DEVELOPMENT LIMITED, priority 2022, published 2025).

The target of one experiment is T1, Androgen Receptor (Homo sapiens, UniProt P10275, T878A).
T1 construct: the AR gene was modified, using CRISPR/Cas9 editing, so the expressed AR protein included an 11 amino acid HiBiT tag; endogenous in cells; host or cells: clonal LnCaP-derived line, AR gene edited by CRISPR/Cas9
Briefly: Androgen Receptor Degradation Assay (Nano-Glo HiBiT). It counts as cell-based. As to conditions: LNCaP, 18 h, HiBiT-tagged AR in human LnCaP cells, read-out: mean asymptote max. The procedure, abridged:
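LnCaP cells with CRISPR-knocked-in N-terminal HiBiT-tagged AR (10,000/well) treated 18 h at 37 °C with PROTACs over 11 threefold concentrations; lytic HiBiT luminescence normalised to DMSO (0%) and cell-free (100%) controls. Relative DC50 = 4-parameter fit inflection; absolute DC50 = 50% degradation interpolation; Dmax = maximum observed degradation.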

Experiment [1] has as its target T2, Full length Cereblon protein (6His tev Cereblon/6His tev DDB1ΔBPB) (Homo sapiens, UniProt Q96SW2).
T2 construct: Full length Cereblon protein (6His tev Cereblon/6His tev DDB1ΔBPB) was expressed and purified from E. coli; made in house; host or cells: E. coli
Briefly: Cereblon Binding Assay (TR-FRET). As to conditions: 5 nM protein, 50 nM Alexa647-lenalidomide ligand, read-out: Mean pIC50 (converted). The procedure:
Full length Cereblon protein (6His tev Cereblon/6His tev DDB1ΔBPB) was expressed and purified from E. coli to monitor compound binding. […] A Thermo Scientific Multidrop Combi was used to dispense 5 μL of 10 nM protein in assay buffer of 50 mM
HEPES, 150 mM NaCl, 5% glycerol, 1 mM DTT and 1 mM CHAPS, pH 7.4, in the presence of 100 nM fluorescent ligand (Final assay concentrations of 5 nM protein and 50 nM ligand). After equilibrating for 15 min in the dark at room temperature a 5 μL addition was made of 2 nM europium chelate labelled anti-6His antibody (Perkin Elmer, W1024, AD0111) in assay buffer (1 nM FAC). […] TR-FRET ratio data was normalised to high (DMSO) and low (reaction in the absence of protein) controls and pIC50 values determined for each of the compounds tested by fitting the fluorescence ratio data to a four parameter model:
[formula] • where ‘a’ is the minimum, ‘b’ is the maximum, ‘c’ is the pIC50 and ‘d’ is the Hill slope.
Background: TR-FRET usually uses a lanthanide donor and a delayed reading to cut background.

The target in experiment [2] is T3, Androgen Receptor dual T878A/L702H mutant protein (Homo sapiens, UniProt P10275, L702H/T878A).
T3 construct: Androgen Receptor dual T878A/L702H mutant protein in human MDA PCa 2b (ATCC, #CRL-2422) cells; host or cells: MDA PCa 2b
T3 sequence (P10275 1-920 L702H/T878A): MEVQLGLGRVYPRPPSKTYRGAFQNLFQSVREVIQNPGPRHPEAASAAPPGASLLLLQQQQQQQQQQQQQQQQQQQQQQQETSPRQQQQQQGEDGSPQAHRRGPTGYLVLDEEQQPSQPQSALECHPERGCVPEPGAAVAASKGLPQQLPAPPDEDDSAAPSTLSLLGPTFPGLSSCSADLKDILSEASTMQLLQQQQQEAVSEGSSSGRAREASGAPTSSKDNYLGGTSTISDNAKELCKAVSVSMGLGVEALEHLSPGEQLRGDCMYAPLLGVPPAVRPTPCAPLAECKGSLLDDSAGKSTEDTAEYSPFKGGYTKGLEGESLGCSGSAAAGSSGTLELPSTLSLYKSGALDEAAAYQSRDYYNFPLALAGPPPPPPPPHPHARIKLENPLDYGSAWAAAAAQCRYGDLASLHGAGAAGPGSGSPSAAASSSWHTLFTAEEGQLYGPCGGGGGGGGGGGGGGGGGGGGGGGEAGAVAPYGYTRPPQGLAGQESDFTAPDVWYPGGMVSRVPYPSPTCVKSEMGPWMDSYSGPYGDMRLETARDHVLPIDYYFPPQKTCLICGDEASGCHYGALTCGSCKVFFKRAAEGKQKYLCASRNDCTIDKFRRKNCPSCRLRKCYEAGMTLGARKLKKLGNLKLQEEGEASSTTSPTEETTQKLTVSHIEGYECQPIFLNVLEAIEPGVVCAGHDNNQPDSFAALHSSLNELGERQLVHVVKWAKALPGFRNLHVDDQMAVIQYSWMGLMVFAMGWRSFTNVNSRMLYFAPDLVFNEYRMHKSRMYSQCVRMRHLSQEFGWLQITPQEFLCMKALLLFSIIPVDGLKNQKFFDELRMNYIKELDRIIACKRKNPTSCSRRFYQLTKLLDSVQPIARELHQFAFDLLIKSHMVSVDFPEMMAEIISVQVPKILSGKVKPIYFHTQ
Briefly: Dual Mutant (T878A/L702H) Androgen Receptor Degradation Assay (HTRF). It is filed as cell-based. As to conditions: MDA-PCa-2b, 18 h, human MDA PCa 2b cells, read-out: mean asymptote max. How it is done:
Degradation of Androgen Receptor dual T878A/L702H mutant protein in human MDA PCa 2b (ATCC, #CRL-2422) cells treated with PROTACs was quantified using the HTRF Human Androgen Receptor Detection Kit (PerkinElmer, #64ANDRPEH) in 384 well assay plate format. 10 mM DMSO(Sigma-Aldrich, #472301) stock solutions of PROTACs were prepared and diluted across an 11 concentration, 3-fold increment range, and 25 nL dispensed into a white opaque bottomed 384 well assay plate (Thermofisher, #164610) using an acoustic ECHO dispenser (Labcyte). Cells were cultured in growth medium (BRFF-HPC-1 (Athena ES, #0403) supplemented with 20% FBS (Gibco, #10099-141), penicillin 50 U/mL and streptomycin 50 ug/mL (Gibco, #15140-122)) in collagen I or poly-D-lysine coated T175 flasks (Corning, #356487 or #356539, respectively). For the assay, cells were harvested from the flask, centrifuged at 200 g for 5 min and then resuspended in the growth medium. 25 μl of cell suspension containing 10,000 cells was dispensed into each well of the assay plate containing the test compounds, which was then incubated for 18 h at 37° C./5% CO2. Control wells were included on each assay plate, with assay medium without cells being the no AR remaining 100% effect control, and cells treated with DMSO vehicle only, without PROTAC, the 0% effect control. After 18 h incubation 8 μl of supplemented lysis buffer from HTRF kit was added to each well and the plate shaken at 500 rpm for 1 h at room temperature. 8 μl of antibody mix in Detection buffer from HTRF kit was added to each well and the plate was incubated for 2 h in dark at room temperature. The fluorescence was measured at both 620 nm and 665 nm using an excitation wavelength of 337 nm with a PHERAstar microplate reader (BMG Labtech) and the % AR protein remaining in each well was calculated by normalising the HTRF ratio (665 nm signal/620 nm signal) value to the control wells mentioned above. Parameters corresponding to the potency and efficacy estimates of the PROTACs were obtained from these normalised values using curve fitting software (IDBS ActivityBase). These included the DC50 and the Dmax estimates. Two versions of the DC50, called relative DC50 and absolute DC50, were typically generated. These are the inflection point of a fitted 4 parameter sigmoidal response curve and the interpolated concentration of PROTAC corresponding to 50% of the protein being degraded, respectively. The Dmax parameter was the maximum experimentally observed degradation and the asymptote max parameter the fitted response curve asymptote maximum.

Structures are written as SMILES. Counter-ions that a name gives are not always drawn.

T1 sequence (P10275 whole entry T878A): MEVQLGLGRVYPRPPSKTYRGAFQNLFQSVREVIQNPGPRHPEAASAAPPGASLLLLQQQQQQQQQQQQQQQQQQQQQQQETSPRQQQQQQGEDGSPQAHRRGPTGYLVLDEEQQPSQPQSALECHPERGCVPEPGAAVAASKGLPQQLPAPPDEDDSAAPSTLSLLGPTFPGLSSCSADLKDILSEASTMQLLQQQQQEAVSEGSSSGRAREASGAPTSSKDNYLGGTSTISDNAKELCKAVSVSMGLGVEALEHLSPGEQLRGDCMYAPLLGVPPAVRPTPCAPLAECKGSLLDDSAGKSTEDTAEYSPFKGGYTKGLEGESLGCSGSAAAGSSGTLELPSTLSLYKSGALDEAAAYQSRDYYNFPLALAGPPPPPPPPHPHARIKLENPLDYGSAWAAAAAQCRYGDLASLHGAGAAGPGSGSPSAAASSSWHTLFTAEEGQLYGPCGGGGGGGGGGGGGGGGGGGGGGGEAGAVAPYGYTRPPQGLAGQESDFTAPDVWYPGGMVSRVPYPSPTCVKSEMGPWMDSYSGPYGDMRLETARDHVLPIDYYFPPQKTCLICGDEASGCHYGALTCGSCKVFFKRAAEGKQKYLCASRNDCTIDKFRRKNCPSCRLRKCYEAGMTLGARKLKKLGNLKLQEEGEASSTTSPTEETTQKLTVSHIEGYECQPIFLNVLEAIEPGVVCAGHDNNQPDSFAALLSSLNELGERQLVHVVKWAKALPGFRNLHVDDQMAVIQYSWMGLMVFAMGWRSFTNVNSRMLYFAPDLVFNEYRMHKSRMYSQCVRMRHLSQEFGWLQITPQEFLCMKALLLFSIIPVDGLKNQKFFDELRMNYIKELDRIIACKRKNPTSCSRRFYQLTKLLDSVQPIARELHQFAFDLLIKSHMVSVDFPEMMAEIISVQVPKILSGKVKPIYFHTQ
T1 sequence (Q96SW2 whole entry partner): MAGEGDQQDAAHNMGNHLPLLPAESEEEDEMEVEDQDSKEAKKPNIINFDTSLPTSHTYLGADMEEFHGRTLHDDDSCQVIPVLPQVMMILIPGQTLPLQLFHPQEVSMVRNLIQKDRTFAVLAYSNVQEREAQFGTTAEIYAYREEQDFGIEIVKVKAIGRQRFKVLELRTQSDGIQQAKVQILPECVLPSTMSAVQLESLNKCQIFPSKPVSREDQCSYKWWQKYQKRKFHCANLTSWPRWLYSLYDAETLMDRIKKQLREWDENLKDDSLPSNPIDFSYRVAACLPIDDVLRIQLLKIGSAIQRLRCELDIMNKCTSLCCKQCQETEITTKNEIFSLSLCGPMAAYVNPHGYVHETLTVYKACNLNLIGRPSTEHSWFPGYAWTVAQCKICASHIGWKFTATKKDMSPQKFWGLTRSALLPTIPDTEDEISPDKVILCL
T1 sequence (Q16531 whole entry partner): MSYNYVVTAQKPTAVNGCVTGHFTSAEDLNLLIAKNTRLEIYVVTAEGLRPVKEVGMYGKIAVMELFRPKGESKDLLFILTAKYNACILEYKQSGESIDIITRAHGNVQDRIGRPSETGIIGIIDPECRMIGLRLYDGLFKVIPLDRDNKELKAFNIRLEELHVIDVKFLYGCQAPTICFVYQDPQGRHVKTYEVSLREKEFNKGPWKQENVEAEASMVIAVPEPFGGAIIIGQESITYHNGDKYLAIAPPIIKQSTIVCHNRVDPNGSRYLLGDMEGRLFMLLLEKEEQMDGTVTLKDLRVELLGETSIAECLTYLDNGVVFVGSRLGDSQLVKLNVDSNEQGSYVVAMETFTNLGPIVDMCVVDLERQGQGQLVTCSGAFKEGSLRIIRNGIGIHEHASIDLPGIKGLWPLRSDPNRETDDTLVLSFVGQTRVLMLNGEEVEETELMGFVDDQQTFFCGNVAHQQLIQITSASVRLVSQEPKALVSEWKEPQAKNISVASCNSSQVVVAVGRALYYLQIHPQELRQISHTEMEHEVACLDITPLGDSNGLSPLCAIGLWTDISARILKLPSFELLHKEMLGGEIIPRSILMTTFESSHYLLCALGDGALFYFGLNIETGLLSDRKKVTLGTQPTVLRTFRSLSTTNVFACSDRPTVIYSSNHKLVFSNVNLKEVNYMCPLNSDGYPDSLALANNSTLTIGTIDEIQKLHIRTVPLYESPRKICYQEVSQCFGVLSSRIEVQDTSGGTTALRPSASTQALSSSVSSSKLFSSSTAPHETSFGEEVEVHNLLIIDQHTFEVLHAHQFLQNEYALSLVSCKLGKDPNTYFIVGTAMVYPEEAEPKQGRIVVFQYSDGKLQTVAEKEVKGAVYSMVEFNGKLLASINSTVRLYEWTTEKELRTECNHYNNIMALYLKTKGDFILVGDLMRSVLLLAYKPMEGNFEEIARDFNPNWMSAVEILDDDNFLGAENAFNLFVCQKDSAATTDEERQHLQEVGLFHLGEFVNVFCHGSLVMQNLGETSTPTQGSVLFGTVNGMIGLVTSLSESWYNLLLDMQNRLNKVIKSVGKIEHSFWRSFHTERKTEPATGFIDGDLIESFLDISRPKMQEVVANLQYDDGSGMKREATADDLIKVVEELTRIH
T2 sequence (Q96SW2 whole entry, stated change not applied): as the sequence (Q96SW2 whole entry partner) above

Regarding `N#Cc1ccc(O[C@H]2CC[C@H](NC(=O)c3ccc(N4CCCC(CN5CCC(n6ccc7c(N8CCC(=O)NC8=O)cccc76)CC5)C4)nn3)CC2)cc1Cl` (mixture of isomers) [EAR73, rac-N-((1r,4r)-4-(3-Chloro-4-cyanophenoxy)cyclohexyl)-6-(3-((4-(4-(2,4-dioxotetrahydropyrimidin-1(2H)-yl)-1H-indol-1-yl)piperidin-1-yl)methyl)piperidin-1-yl)pyridazine-3-carboxamide], on Androgen Receptor, the Dmax is no less than 50%. For the same compound, in experiment [1], the IC50 is no more than 1000 nM. As for `CC1(C)[C@H](NC(=O)c2cnc(N3CCC(C(=O)N4CCC(n5ccc6c(N7CCC(=O)NC7=O)cccc65)CC4)CC3)nc2)C(C)(C)[C@H]1Oc1ccc(C#N)c(Cl)c1` [AR67, N-((1r,3r)-3-(3-Chloro-4-cyanophenoxy)-2,2,4,4-tetramethylcyclobutyl)-2-(4-(4-(4-(2,4-dioxotetrahydropyrimidin-1(2H)-yl)-1H-indol-1-yl)piperidine-1-carbonyl)piperidin-1-yl)pyrimidine-5-carboxamide], the figures for the Dmax (in experiment [2]; at Androgen Receptor) were no less than 55% and no less than 50%, respectively. Turning to `N#Cc1ccc(O[C@H]2CC[C@H](NC(=O)c3ccc(N4CCC(CN5CCC(n6ccc7c(N8CCC(=O)NC8=O)cccc76)C(F)(F)C5)CC4)nn3)CC2)cc1Cl` (single isomer, unassigned) [EAR162, N-((1r,4r)-4-(3-Chloro-4-cyanophenoxy)cyclohexyl)-6-(4-((4-(4-(2,4-dioxotetrahydropyrimidin-1(2H)-yl)-1H-indol-1-yl)-3,3-difluoropiperidin-1-yl)methyl)piperidin-1-yl)pyridazine-3-carboxamide], at Androgen Receptor, the Dmax was no less than 50%. Besides, the IC50 in experiment [1] was no more than 1000 nM.

On to `CC1(C)[C@H](NC(=O)c2ccc(N3CCC(CN4CCC(n5ncc6c(N7CCC(=O)NC7=O)cccc65)CC4)CC3)nn2)C(C)(C)[C@H]1Oc1cnc(C#N)c(Cl)c1` [EAR249, N-((1r,3r)-3-((5-Chloro-6-cyanopyridin-3-yl)oxy)-2,2,4,4-tetramethylcyclobutyl)-6-(4-((4-(4-(2,4-dioxotetrahydropyrimidin-1(2H)-yl)-1H-indazol-1-yl)piperidin-1-yl)methyl)piperidin-1-yl)pyridazine-3-carboxamide hydrochloride], for which the Dmax on Androgen Receptor is no less than 50%. Besides, the IC50 in experiment [1] was no more than 1000 nM. As to `CC1(C)[C@H](NC(=O)c2ccc(N3CCC(CN4CCC(n5ncc6c(N7CCC(=O)NC7=O)cccc65)CC4)CC3)nc2)C(C)(C)[C@H]1Oc1ccc(C#N)c2ncccc12` [AR261, N-((1r,3r)-3-((8-Cyanoquinolin-5-yl)oxy)-2,2,4,4-tetramethylcyclobutyl)-6-(4-((4-(4-(2,4-dioxotetrahydropyrimidin-1(2H)-yl)-1H-indazol-1-yl)piperidin-1-yl)methyl)piperidin-1-yl)nicotinamide hydrochloride], the Dmax in experiment [2] is no less than 55%. For `CC1(C)[C@H](NC(=O)c2ccc(N3CCC(CN4CCC(n5ncc6c(N7CCC(=O)NC7=O)cccc65)CC4)CC3)nn2)C(C)(C)[C@H]1Oc1ccc(C#N)c2ncccc12` [AR246, N-((1r,3r)-3-((8-Cyanoquinolin-5-yl)oxy)-2,2,4,4-tetramethylcyclobutyl)-6-(4-((4-(4-(2,4-dioxotetrahydropyrimidin-1(2H)-yl)-1H-indazol-1-yl)piperidin-1-yl)methyl)piperidin-1-yl)pyridazine-3-carboxamide], the Dmax is no less than 55% in experiment [2] and no less than 50% on Androgen Receptor. Taken in the same sequence, the figures for `CC1(C)[C@H](NC(=O)c2ccc(CCCCCCN3CCC(n4ccc5c(N6CCC(=O)NC6=O)cccc54)CC3)cc2)C(C)(C)[C@H]1Oc1ccc(C#N)c(C(F)(F)F)c1` [EAR75, N-((1r,3r)-3-(4-Cyano-3-(trifluoromethyl)phenoxy)-2,2,4,4-tetramethylcyclobutyl)-4-(6-(4-(4-(2,4-dioxotetrahydropyrimidin-1(2H)-yl)-1H-indol-1-yl)piperidin-1-yl)hexyl)benzamide] were no less than 55% and no less than 50%.

Consider `CC1(C)[C@H](NC(=O)c2ccc(N3CCC(CN4CCC(n5ccc6c(N7CCC(=O)NC7=O)cccc65)CC4)CC3)nc2)C(C)(C)[C@H]1Oc1ccc(C#N)c(Cl)c1` [EAR29, N-((1r,3r)-3-(3-chloro-4-cyanophenoxy)-2,2,4,4-tetramethylcyclobutyl)-6-(4-((4-(4-(2,4-dioxotetrahydropyrimidin-1(2H)-yl)-1H-indol-1-yl)piperidin-1-yl)methyl)piperidin-1-yl)nicotinamide formate], for which the results for the Dmax (in experiment [2]; on Androgen Receptor) were no less than 55% and no less than 50%, respectively. Taken in the same sequence, the figures for `CC1(C)[C@H](NC(=O)c2ccc(N3CCC(CN4CCC(n5ccc6c(N7CCC(=O)NC7=O)nccc65)CC4)CC3)nn2)C(C)(C)[C@H]1Oc1ccc(C#N)c2ncccc12` [EAR251, N-((1r,3r)-3-((8-Cyanoquinolin-5-yl)oxy)-2,2,4,4-tetramethylcyclobutyl)-6-(4-((4-(4-(2,4-dioxotetrahydropyrimidin-1(2H)-yl)-1H-pyrrolo[3,2-c]pyridin-1-yl)piperidin-1-yl)methyl)piperidin-1-yl)pyridazine-3-carboxamide hydrochloride] were no less than 55% and no less than 50%. As for `O=C1CCN(c2cc(F)cc3c2cnn3C2CCNCC2)C(=O)N1` [ECB10, 1-(6-Fluoro-1-(piperidin-4-yl)-1H-indazol-4-yl)dihydropyrimidine-2,4(1H,3H)-dione], the IC50 in experiment [1] was 200 nM.
